Laboratory results reported in publication PMC5653232 (Cell reports, 2017).

Key:
Assay type in all cases: binding
[1] = system: CHD3 PHD1/2; experiment: 1H,15N HSQC NMR titration, linked CHD3 PHD1/2; conditions: 15N-labelled PHD1/2, 298 K, H3 peptides aa 1–12
[2] = biological target: CHD3 PHD2 (Homo sapiens, UniProt Q12873); experiment: 1H,15N HSQC NMR titration, CHD3 PHD2; conditions: compared with unmodified H3; protein:peptide ratio 1:0.5; 298 K
[3] = biological target: CHD3 PHD1 (Homo sapiens, UniProt Q12873); experiment: 1H,15N HSQC NMR titration, CHD3 PHD1; conditions: compared with unmodified H3; protein:peptide ratio 1:0.5; 298 K
[4] = system: biotinylated histone peptides (residues 1–20 of H3); experiment: Pull-down of GST-CHD3 PHDs with biotinylated histone H3 peptides, Western blot; conditions: blots overexposed to the same degree as PHD1/2; 2 h at 4 °C, pH 8.0

Substance | chemical shift perturbations, linked PHD1/2 [1] | effect of modification on binding by NMR CSPs, PHD2 [2] | effect of modification on binding by NMR CSPs, PHD1 [3] | pull-down association of individual PHD1 and PHD2 with histone peptides [4]
H3K4me3: histone H3 peptide (aa 1–12) with the K4me3 modification | CSPs consistent with a much weaker association | strong inhibitory effects | strong inhibitory effects | 
PHD1: PHD1 (373–427) of CHD3 (GYETDHQDYCEVCQQGGEIILCDTCPRAYHLVCLDPELDRAPEGKWSCPHCEKEG; left off: GST, end not stated, cleaved) |  |  |  | barely detectable
PHD2: PHD2 (454–508) of CHD3 (DHMEYCRVCKDGGELLCCDACISSYHIHCLNPPLPDIPNGEWLCPRCTCPVLKGR; left off: GST, end not stated, cleaved) |  |  |  | barely detectable
